# Measurements as given in PMC5477026 (Chemical Science, 2016).
# Target: T1, MexG (Pseudomonas aeruginosa, UniProt Q9HWH6)
# T1 sequence (Q9HWH6 1-148): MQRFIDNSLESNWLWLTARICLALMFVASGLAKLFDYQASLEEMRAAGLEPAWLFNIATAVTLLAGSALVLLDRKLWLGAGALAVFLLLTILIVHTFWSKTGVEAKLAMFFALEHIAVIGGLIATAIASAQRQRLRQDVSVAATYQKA
# Experiment: intrinsic Trp fluorescence quenching titration
# Format: binding
structure (smiles),measurement,value
"CCCCCCCc1[nH]c2ccccc2c(=O)c1O [PQS, 2-heptyl-3-hydroxy-4(1H)-quinolone]",Kd,1000 nM
